Assays:
[1] = biological target: T1, DDB1DB/DCAF15 and RBM39 R1R2 complex (Homo sapiens, UniProt Q14498+Q66K64); assay: DCAF15 RBM39 Complex Formation Assay (FRET); assay type: binding; details: FRET ratio Em 665/Em 615, incubated overnight at 4° C.
T1 construct: Amino acids 150 to 331 of RBM39 were cloned into pGEX4T3; GST (from vector pGEX4T3); TEV cleavage site (N); made in house; host or cells: DDB1DB/His-DCAF15: baculovirus/Sf9 co-expression; RBM39 R1R2: E. coli (pGEX4T3)
Outline: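 Ternary complex formation read by TR-FRET (Em 665/615, excitation 340 nm) after overnight incubation at 4° C of 20 nM baculovirus DDB1DB/His-DCAF15 and 50 nM E. coli RBM39 RRM1-RRM2 FLAG fragment with 14-point, 3-fold compound dilutions from 1 μM; EC50 from 4-parameter fit.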

[2] = test system: HCT116 colorectal carcinoma cells; assay: In vivo efficacy study, HCT116 xenograft; design: species or system Athymic Nude mice; details: for Body Weight (g) Mean ± SEM / Tumor Volume (mm^3) Mean ± SEM / Tumor Weight (g) Mean ± SD: HCT116 xenograft mice; for body weight versus vehicle group / reduction of tumor volume and tumor weight: HCT116 mouse model, compound 3 100 mg/kg BID, compound 136 30 mg/kg BID, 12 days; for reduction of tumor volume and tumor weight: versus vehicle
Excerpt: Compound 3 were formulated with 10% absolute ethanol, 30% PEG400, 60% water containing 0.5% methyl cellulose and 0.5% Tween80®. 2×10^6 HCT116 colorectal carcinoma cells (ATCC® CCL-247) in PBS and Matrigel (1:1 in volume) were inoculated subcutaneously in the right flank of Athymic Nude mice at 6-7 weeks of age for tumor development. When the xenografts reached about 150 mm^3 in size, the tumor bearing mice were randomly grouped into six groups (n=6) and treated by oral gavage with vehicle (10% absolute ethanol, 30% PEG400, 60% water containing 0.5% methyl cellulose and 0.5% Tween80®, BID) or compound 3 at 100 mg/kg BID for 12 days. Tumor sizes were measured twice weekly in two dimensions using a caliper and the volume were expressed in mm^3 using the formula V=0.5×a×b^2 wherein a and b were the long and short diameters of the tumor, respectively. The efficacy study for compound 136 was carried out in the same manner as that of compound 3 except compound 136 was dosed at 30 mg/kg BID for 12 days.

[3] = test system: HCT116 human colorectal carcinoma cells; assay: CellTiter-Glo Luminescent Cell Viability Assay; assay type: cell-based; details: HCT-116, 72 h, 3 days
Outline: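 HCT116 cells were exposed for 3 days to compound in triplicate at final concentrations of 5 to 0.0002 […] (1:3 dilutions). Viability was read by CellTiter-Glo luminescence, and IC50 values were calculated.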

[4] = 100 mg/kg BID oral gavage for 12 days
[5] = 30 mg/kg BID oral gavage for 12 days

T1 sequence (Q66K64 whole entry, the tested form may be a part): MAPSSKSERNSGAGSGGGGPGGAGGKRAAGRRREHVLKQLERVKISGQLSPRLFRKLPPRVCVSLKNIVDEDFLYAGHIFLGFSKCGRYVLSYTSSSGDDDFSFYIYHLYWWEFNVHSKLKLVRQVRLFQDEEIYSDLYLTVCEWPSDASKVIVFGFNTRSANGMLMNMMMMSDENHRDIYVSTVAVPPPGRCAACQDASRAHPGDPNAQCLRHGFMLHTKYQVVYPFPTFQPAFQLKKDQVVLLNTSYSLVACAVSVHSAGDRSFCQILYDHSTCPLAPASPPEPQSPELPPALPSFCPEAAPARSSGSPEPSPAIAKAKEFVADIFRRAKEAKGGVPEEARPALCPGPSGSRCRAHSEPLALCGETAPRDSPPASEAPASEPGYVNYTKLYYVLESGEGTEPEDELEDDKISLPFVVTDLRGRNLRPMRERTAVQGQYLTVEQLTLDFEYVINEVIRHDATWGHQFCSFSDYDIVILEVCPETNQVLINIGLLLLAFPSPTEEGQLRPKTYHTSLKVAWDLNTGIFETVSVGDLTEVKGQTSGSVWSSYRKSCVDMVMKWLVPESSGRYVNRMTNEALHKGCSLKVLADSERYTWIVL
T1 sequence (Q14498 150-331): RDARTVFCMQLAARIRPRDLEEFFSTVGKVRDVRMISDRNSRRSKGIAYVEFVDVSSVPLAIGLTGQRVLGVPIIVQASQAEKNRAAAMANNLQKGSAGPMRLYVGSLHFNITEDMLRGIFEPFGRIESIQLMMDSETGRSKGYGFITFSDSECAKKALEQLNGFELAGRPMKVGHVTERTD
T1 sequence (Q16531 with tags, fused parts or gaps DEL396-708 partner): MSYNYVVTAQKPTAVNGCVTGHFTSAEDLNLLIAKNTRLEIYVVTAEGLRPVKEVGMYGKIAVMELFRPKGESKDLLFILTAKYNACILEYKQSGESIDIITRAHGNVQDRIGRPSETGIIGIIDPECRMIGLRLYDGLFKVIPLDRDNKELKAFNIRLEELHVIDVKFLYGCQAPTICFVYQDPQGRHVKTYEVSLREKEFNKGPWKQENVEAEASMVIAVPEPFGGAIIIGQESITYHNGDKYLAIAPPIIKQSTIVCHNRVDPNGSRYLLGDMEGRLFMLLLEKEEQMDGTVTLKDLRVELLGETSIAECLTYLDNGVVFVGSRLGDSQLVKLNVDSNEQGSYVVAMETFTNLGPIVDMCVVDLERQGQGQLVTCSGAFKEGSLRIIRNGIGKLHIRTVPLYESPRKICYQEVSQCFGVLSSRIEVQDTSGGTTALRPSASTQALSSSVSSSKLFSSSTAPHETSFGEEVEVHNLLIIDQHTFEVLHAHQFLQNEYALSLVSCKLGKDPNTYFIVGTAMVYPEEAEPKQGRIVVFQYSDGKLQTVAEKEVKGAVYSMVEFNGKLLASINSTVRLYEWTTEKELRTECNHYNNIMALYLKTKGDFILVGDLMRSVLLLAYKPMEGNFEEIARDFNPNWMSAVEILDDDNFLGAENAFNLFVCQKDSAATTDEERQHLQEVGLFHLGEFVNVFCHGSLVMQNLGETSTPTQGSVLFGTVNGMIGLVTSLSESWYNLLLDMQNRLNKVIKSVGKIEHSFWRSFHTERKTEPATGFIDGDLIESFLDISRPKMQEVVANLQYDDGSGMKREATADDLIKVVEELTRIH

Row | SMILES | IC50 [1] [µM] | EC50 [3] [µM] | other results
1 | N#Cc1c[nH]c2c(NS(=O)(=O)c3cnn(C4CCNC4=O)c3)ccc(Cl)c12 (stereo not drawn) [Compound 147, N-(4-chloro-3-cyano-1H-indol-7-yl)-1-(2-oxopyrrolidin-3-yl)pyrazole-4-sulfonamide] | < 0.25 | > 1 | 
2 | Cc1ccc(NS(=O)(=O)c2cnn(C3CC4(COC4)C3)c2)c2[nH]cc(C#N)c12 [Compound 85, N-(3-cyano-4-methyl-1H-indol-7-yl)-1-(2-oxaspiro[3.3]heptan-6-yl)pyrazole-4-sulfonamide] | < 0.25 | 0.25 to 1 | 
3 | N#Cc1c[nH]c2c(NS(=O)(=O)c3cnn(C4COC4)c3)ccc(Cl)c12 [Compound 125, N-(4-chloro-3-cyano-1H-indol-7-yl)-1-(oxetan-3-yl)pyrazole-4-sulfonamide] | < 0.25 | 0.25 to 1 | 
4 | N#CCC1(n2cc(S(=O)(=O)Nc3ccc(Cl)c4c(Cl)c[nH]c34)cn2)COC1 [Compound 160, 1-[3-(cyanomethyl)oxetan-3-yl]-N-(3,4-dichloro-1H-indol-7-yl)pyrazole-4-sulfonamide] | < 0.25 | < 0.25 | 
5 | N#Cc1c[nH]c2c(NS(=O)(=O)c3cnn([C@H]4CNC[C@H]4F)c3)ccc(Cl)c12 [Compound 152, N-(4-chloro-3-cyano-1H-indol-7-yl)-1-[(3S,4R)-4-fluoropyrrolidin-3-yl]pyrazole-4-sulfonamide] | < 0.25 | > 1 | 
6 | CC(C)(N)Cn1cc(S(=O)(=O)Nc2ccc(Cl)c3c(C#N)c[nH]c23)cn1 [Compound 178, 1-(2-amino-2-methyl-propyl)-N-(4-chloro-3-cyano-1H-indol-7-yl)pyrazole-4-sulfonamide] | < 0.25 | > 1 | 
7 | CC(C)(C(N)=O)n1cc(S(=O)(=O)Nc2ccc(Cl)c3c(C#N)c[nH]c23)cn1 [Compound 154, 2-[4-[(4-chloro-3-cyano-1H-indol-7-yl)sulfamoyl]pyrazol-1-yl]-2-methyl-propanamide] | < 0.25 | 0.25 to 1 | 
8 | Cc1ccc(NS(=O)(=O)c2cnn(C(C)C)c2)c2[nH]cc(C#N)c12 [Compound 63, N-(3-cyano-4-methyl-1H-indol-7-yl)-1-isopropyl-pyrazole-4-sulfonamide] | < 0.25 | 0.25 to 1 | 
9 | NC(=O)Cn1cc(S(=O)(=O)Nc2cccc3c(Cl)c[nH]c23)cn1 [Compound 16, 2-[4-[(3-chloro-1H-indol-7-yl)sulfamoyl]pyrazol-1-yl]acetamide] | < 0.25 | 0.25 to 1 | 
10 | Cc1ccc(NS(=O)(=O)c2cnn(C3CC(F)C3)c2)c2[nH]cc(C#N)c12 (stereo not drawn) [Compound 111, N-(3-cyano-4-methyl-1H-indol-7-yl)-1-(3-fluorocyclobutyl)pyrazole-4-sulfonamide] | < 0.25 | 0.25 to 1 | 
11 | Cc1ccc(NS(=O)(=O)c2cnn(CC(C)(C)C#N)c2)c2[nH]cc(C#N)c12 [Compound 76, N-(3-cyano-4-methyl-1H-indol-7-yl)-1-(2-cyano-2-methyl-propyl)pyrazole-4-sulfonamide] | < 0.25 | 0.25 to 1 | 
12 | N#Cc1c[nH]c2c(NS(=O)(=O)c3cnn(CF)c3)ccc(Cl)c12 [Compound 124, N-(4-chloro-3-cyano-1H-indol-7-yl)-1-(fluoromethyl)pyrazole-4-sulfonamide] | < 0.25 | < 0.25 | 
13 | Cn1cc(S(=O)(=O)Nc2ccc(C(F)(F)F)c3cc[nH]c23)cn1 [Compound 96, 1-methyl-N-[4-(trifluoromethyl)-1H-indol-7-yl]pyrazole-4-sulfonamide] | 0.25 to 1 | > 1 | 
14 | N#Cc1c[nH]c2c(NS(=O)(=O)c3cnn(CC(F)F)c3)ccc(F)c12 [Compound 92, N-(3-cyano-4-fluoro-1H-indol-7-yl)-1-(2,2-difluoroethyl)pyrazole-4-sulfonamide] | < 0.25 | 0.25 to 1 | 
15 | CC(C)(CO)n1ncc(S(=O)(=O)Nc2ccc(Cl)c3c(C#N)c[nH]c23)c1Cl [Compound 250, 5-chloro-N-(4-chloro-3-cyano-1H-indol-7-yl)-1-(2-hydroxy-1,1-dimethyl-ethyl)pyrazole-4-sulfonamide] | < 0.25 | < 0.25 | 
16 | CC1(Cn2cc(S(=O)(=O)Nc3cccc4c(Cl)c[nH]c34)cn2)CSC1 [Compound 44, N-(3-chloro-1H-indol-7-yl)-1-[(3-methylthietan-3-yl)methyl]pyrazole-4-sulfonamide] | < 0.25 | > 1 | 
17 | Cc1ccc(NS(=O)(=O)c2cnn(C(C)(C)CCO)c2)c2[nH]cc(C#N)c12 [Compound 229, N-(3-cyano-4-methyl-1H-indol-7-yl)-1-(4-hydroxy-2-methylbutan-2-yl)-1H-pyrazole-4-sulfonamide] | < 0.25 | < 0.25 | 
18 | Cc1ccc(NS(=O)(=O)c2cnn(C(C)(C)C(N)=O)c2)c2[nH]cc(C#N)c12 [Compound 241, 2-[4-[(3-cyano-4-methyl-1H-indol-7-yl)sulfamoyl]pyrazol-1-yl]-2-methyl-propanamide] | < 0.25 | 0.25 to 1 | 

Continued, in another order:

Row | IC50 [1] [µM] | EC50 [3] [µM] | SMILES | other results
19 | < 0.25 | 0.25 to 1 | Cc1ccc(NS(=O)(=O)c2cnn(C)c2)c2[nH]cc(C#N)c12 [Compound 3, N-(3-cyano-4-methyl-1H-indol-7-yl)-1-methyl-pyrazole-4-sulfonamide] | Body Weight (g) Mean ± SEM [2, 4]: 22.44 ± 0.16 g; Tumor Volume (mm^3) Mean ± SEM [2, 4]: 122.9 ± 33.9 mm^3; Tumor Weight (g) Mean ± SD [2, 4]: .013 ± 0.005 g; body weight versus vehicle group [2]: no significant difference; reduction of tumor volume and tumor weight [2]: statistically significant reduction
20 | < 0.25 | 0.25 to 1 | CC(C)(O)Cn1cc(S(=O)(=O)Nc2ccc(Cl)c3c(C#N)c[nH]c23)cn1 [Compound 136, N-(4-chloro-3-cyano-1H-indol-7-yl)-1-(2-hydroxy-2-methyl-propyl)pyrazole-4-sulfonamide] | Body Weight (g) Mean ± SEM [2, 5]: 21.4 ± 0.14 g; Tumor Volume (mm^3) Mean ± SEM [2, 5]: 175.7 ± 12.3 mm^3; Tumor Weight (g) Mean ± SD [2, 5]: .083 ± 0.06 g; body weight versus vehicle group [2]: no significant difference; reduction of tumor volume and tumor weight [2]: statistically significant reduction
21 | < 0.25 | 0.25 to 1 | Cc1ccc(NS(=O)(=O)c2cnn(CC3(F)CN(C(=O)OC(C)(C)C)C3)c2)c2[nH]cc(C#N)c12 [Compound 255, tert-butyl 3-[[4-[(3-cyano-4-methyl-1H-indol-7-yl)sulfamoyl]pyrazol-1-yl]methyl]-3-fluoro-azetidine-1-carboxylate] | 
22 | < 0.25 | < 0.25 | Cc1ccc(NS(=O)(=O)c2cnn(C)c2N)c2[nH]cc(C#N)c12 [Compound 161, 5-amino-N-(3-cyano-4-methyl-1H-indol-7-yl)-1-methyl-pyrazole-4-sulfonamide] | 
23 | < 0.25 | > 1 | Cc1ccc(NS(=O)(=O)c2cnn([C@H]3CNC[C@H]3F)c2)c2[nH]cc(C#N)c12 [Compound 151, N-(3-cyano-4-methyl-1H-indol-7-yl)-1-[(3S,4R)-4-fluoropyrrolidin-3-yl]pyrazole-4-sulfonamide] | 
24 | < 0.25 | < 0.25 | N#Cc1c[nH]c2c(NS(=O)(=O)c3cnn(C4(CO)CCC4)c3)ccc(Cl)c12 [Compound 191, N-(4-chloro-3-cyano-1H-indol-7-yl)-1-[1-(hydroxymethyl)cyclobutyl]pyrazole-4-sulfonamide] | 
25 | < 0.25 | > 1 | CC(C)(O)Cn1cc(S(=O)(=O)Nc2ccc(F)c3c(C#N)c[nH]c23)cn1 [Compound 192, N-(3-cyano-4-fluoro-1H-indol-7-yl)-1-(2-hydroxy-2-methyl-propyl)pyrazole-4-sulfonamide] | 
26 | < 0.25 | 0.25 to 1 | N#Cc1c[nH]c2c(NS(=O)(=O)c3cnn(CC(F)F)c3N)ccc(F)c12 [Compound 279, 5-amino-N-(4-cyano-4-fluoro-1H-indol-7-yl)-1-(2,2-difluoroethyl)pyrazole-4-sulfonamide] | 
27 | < 0.25 | < 0.25 | Cc1ccc(NS(=O)(=O)c2cnn(C(C)(C)CO)c2Cl)c2[nH]cc(C#N)c12 [Compound 244, 5-chloro-N-(3-cyano-4-methyl-1H-indol-7-yl)-1-(2-hydroxy-1,1-dimethyl-ethyl)pyrazole-4-sulfonamide] | 
28 | < 0.25 | > 1 | N#Cc1c[nH]c2c(NS(=O)(=O)c3cnn([C@@H](CO)CF)c3)ccc(F)c12 [Compound 247] | 
